Experiments:
[1] = head of release table, Example 3; cited from earlier work
[2] = Release profile (cumulative fraction released) of a memantine and dihydroergotamine combination, USP II Paddle system, water; format: physicochemical
Text: The cumulative fraction is the amount of drug substance released from the formulation matrix to the serum or gut environment (e.g., U.S. Pat. No. 4,839,177) or as measured with a USP II Paddle system using water as the dissolution medium.

[3] = humans; cited from earlier work

In the case of CN1C[C@H](C(=O)N[C@]2(C)O[C@@]3(O)[C@@H]4CCCN4C(=O)[C@H](Cc4ccccc4)N3C2=O)C[C@@H]2c3cccc4[nH]cc(c34)C[C@H]21 [DIHYDROERGOTAMINE, dihydroergotamine], the T½ [1] is given as “T½ = 15 hrs”, the cum. fraction ([2]; Time 1) is given as 0.15 and the cum. fraction ([2]; Time 2) is given as 0.30. It also gave a cum. fraction ([2]; Time 4) of 0.45, a cum. fraction ([2]; Time 8) of 0.60 and a cum. fraction ([2]; Time 12) of 0.75. For the same compound, the cum. fraction ([2]; Time 16) was 0.90, the cum. fraction ([2]; Time 20) was 0.98 and the cum. fraction ([2]; Time 24) was 0.99.

CC12CC3CC(C)(C1)CC(N)(C3)C2 [Memantine, 1-amino-3,5-dimethyladamantane] showed a cum. fraction ([2]; Time 1) of 0.15, a cum. fraction ([2]; Time 2) of 0.30 and a cum. fraction ([2]; Time 4) of 0.45. It also gave a cum. fraction ([2]; Time 8) of 0.60, a cum. fraction ([2]; Time 12) of 0.75 and a cum. fraction ([2]; Time 16) of 0.90. For the same compound, the cum. fraction ([2]; Time 20) was 0.98 and the cum. fraction ([2]; Time 24) was 0.99.

In the case of CC(N)C12CC3CC(CC(C3)C1)C2 (stereo not drawn) [Rimantadine, 1-(1-aminoethyl)adamantane], the “Dose Dependent Tox” value [3] is given as “Insomnia”.
